{
  "source": "paper PMC6499206",
  "about": "“Quantification of Volatile Metabolites Derived From Garlic (Allium sativum) in Human Urine” (Frontiers in Nutrition, 2019)",
  "experiment": "Quantification of garlic-derived metabolites in human urine after ingestion of 3 g raw garlic (SIDA, SAFE, HRGC-MS / HRGC-GC-MS)",
  "format": "in vivo",
  "conditions": "3 g raw garlic",
  "text": "Human urine samples were obtained from 18 volunteers (age 22–38 years, mean 27 years; 11 females, 7 males); thereby, one volunteer conducted the whole experimental series twice. At the time of examination, volunteers reported no known illness that might have potentially influenced the metabolism or the excretion of urine. The test persons were instructed to avoid foods that were rich in sulfur-containing substances at the testing day as well as 2 days preceding the testing day, namely garlic, onion, wild garlic, chives, cabbage, and leek, and were only allowed to consume the garlic sample provided in the course of the experiments. Additionally, subjects were asked to keep records of the food (including food supplements) and beverages they consumed during these 3 testing days. Generally, the overall panelists' requirements were in accordance with our previous studies ([5], [16]).\nOn the sampling day, the outer garlic cloves of a whole garlic bulb were peeled and cut into ~3 mm cubes by using a garlic cutter (Genius GmbH, Limburg/Lahn, Germany). Subsequently these cubes were thoroughly mixed and aliquoted into 3 g portions. Three to four test persons conducted the experiment at the same day. Each test person was asked to ingest a garlic portion of 3 g. In total, eight consecutive urine samples were provided by each test person, comprising one whole urine set. The samples were collected in sterile brown glass bottles, with sampling times as follows: one sample was provided directly prior to garlic consumption. The series of the second to eighth sample was then obtained at about 0.5, 1, 2, 4, 6, 8, and 24 h after garlic consumption, respectively. Between the first urine sample (prior to garlic consumption) and the seventh urine sample (8 h after garlic consumption) test persons only spent urine at the specific time points mentioned before. Another sample was provided at the next morning (24 h after garlic consumption). Between the samples provided 8 and 24 h after garlic consumption no urine was collected. All samples were immediately placed into a −80°C freezer and were kept frozen until further analysis.\nThe samples of each set were termed according to their sampling time. The following list provides the time intervals that are related to the respective sample name: • - pre: before garlic consumption • - 0.5 h post: 0.4–0.8 h after garlic consumption • - 1 h post: 0.9–1.3 h after garlic consumption • - 2 h post: 1.8 h−2.2 h after garlic consumption • - 4 h post: 3.8–4.4 h after garlic consumption • - 6 h post: 5.8–6.4 h after garlic consumption • - 8 h post: 7.8–8.4 h after garlic consumption • - 24 h post: 23.8–25.6 h after garlic consumption\nA creatinine kit (Labor+Technik Eberhard Lehmann GmbH, Berlin, Germany) was used to determine the creatinine content in each urine sample. The determination principle of this kit is based on the reaction of creatinine with picric acid under basic conditions (Jaffé reaction). The formed complex was detected photometrically at a wavelength of 492 nm.\nFor quantification purposes, the deuterated standards ^2H3-AMS, ^2H3-AMSO, and ^2H3-AMSO2 were added to the sample and stirred for 10 min. Subsequently, DCM was added in a ratio of 1:2 (DCM/human urine; v/v) and this solution was stirred for further 30 min at room temperature. To isolate the volatile fraction from the urine samples we then applied SAFE-distillation ([17]), thereby distilling the respective samples at 50°C. After completion of the distillation process, 10 mL of DCM were applied in each case to rinse the SAFE apparatus and to ensure complete transition of the volatile compounds. This process was repeated with another 10 mL of DCM. After thawing, the obtained aqueous distillate phase was extracted three times with 25 mL DCM. The organic phases were combined, dried over anhydrous Na2SO4 and concentrated to a total volume of 100 μL by means of Vigreux distillation and subsequent micro-distillation at 50°C. […]",
  "data": [
    {"smiles": "C=CCSC", "note": "[AMS, allyl methyl sulfide]", "values": [
      {"measurement": "metabolite concentration in urine, creatinine-normalized", "setting": "U VII, 1 h post (1.08 h)", "value": 0.8, "unit": "µg/mmol creatinine"},
      {"measurement": "metabolite concentration in urine", "setting": "U VII, 2 h post (2.00 h)", "value": 0.8, "unit": "µg/kg"},
      {"measurement": "metabolite concentration in urine, creatinine-normalized", "setting": "U VII, 2 h post (2.00 h)", "value": 0.8, "unit": "µg/mmol creatinine"},
      {"measurement": "metabolite concentration in urine", "setting": "U VII, 4 h post (4.00 h)", "value": 0.6, "unit": "µg/kg"},
      {"measurement": "metabolite concentration in urine, creatinine-normalized", "setting": "U VII, 4 h post (4.00 h)", "value": 0.3, "unit": "µg/mmol creatinine"},
      {"measurement": "metabolite concentration in urine", "setting": "U VII, 6 h post (6.00 h)", "value": 0.7, "unit": "µg/kg"},
      {"measurement": "metabolite concentration in urine, creatinine-normalized", "setting": "U VII, 6 h post (6.00 h)", "value": 0.2, "unit": "µg/mmol creatinine"},
      {"measurement": "metabolite concentration in urine", "setting": "U VII, 8 h post (8.00 h)", "value": 0.4, "unit": "µg/kg"},
      {"measurement": "metabolite concentration in urine, creatinine-normalized", "setting": "U VII, 8 h post (8.00 h)", "value": 0.2, "unit": "µg/mmol creatinine"},
      {"measurement": "metabolite concentration in urine", "setting": "U VII, 24 h post (24.00 h)", "value": "traces^1"},
      {"measurement": "metabolite concentration in urine, creatinine-normalized", "setting": "U VII, 24 h post (24.00 h)", "value": "traces^1"},
      {"measurement": "metabolite concentration in urine", "setting": "U VII, pre (-0.25 h)", "value": "traces^1"},
      {"measurement": "metabolite concentration in urine, creatinine-normalized", "setting": "U VII, pre (-0.25 h)", "value": "traces^1"},
      {"measurement": "metabolite concentration in urine", "setting": "U VIII, 0.5 h post (0.52 h)", "value": 1.9, "unit": "µg/kg"},
      {"measurement": "metabolite concentration in urine, creatinine-normalized", "setting": "U VIII, 0.5 h post (0.52 h)", "value": 2.3, "unit": "µg/mmol creatinine"},
      {"measurement": "metabolite concentration in urine", "setting": "U VIII, 1 h post (1.08 h)", "value": 1.9, "unit": "µg/kg"},
      {"measurement": "metabolite concentration in urine, creatinine-normalized", "setting": "U VIII, 1 h post (1.08 h)", "value": 1.1, "unit": "µg/mmol creatinine"},
      {"measurement": "metabolite concentration in urine", "setting": "U VIII, 2 h post (2.08 h)", "value": 1.5, "unit": "µg/kg"},
      {"measurement": "metabolite concentration in urine, creatinine-normalized", "setting": "U VIII, 2 h post (2.08 h)", "value": 1.4, "unit": "µg/mmol creatinine"},
      {"measurement": "metabolite concentration in urine", "setting": "U VIII, 4 h post (4.07 h)", "value": 1.6, "unit": "µg/kg"},
      {"measurement": "metabolite concentration in urine, creatinine-normalized", "setting": "U VIII, 4 h post (4.07 h)", "value": 0.7, "unit": "µg/mmol creatinine"},
      {"measurement": "metabolite concentration in urine", "setting": "U VIII, 6 h post (6.08 h)", "value": 1.3, "unit": "µg/kg"},
      {"measurement": "metabolite concentration in urine, creatinine-normalized", "setting": "U VIII, 6 h post (6.08 h)", "value": 0.3, "unit": "µg/mmol creatinine"},
      {"measurement": "metabolite concentration in urine", "setting": "U VIII, 8 h post (7.90 h)", "value": 0.8, "unit": "µg/kg"},
      {"measurement": "metabolite concentration in urine, creatinine-normalized", "setting": "U VIII, 8 h post (7.90 h)", "value": 0.3, "unit": "µg/mmol creatinine"},
      {"measurement": "metabolite concentration in urine", "setting": "U VIII, 24 h post (23.83 h)", "value": 0.3, "unit": "µg/kg"},
      {"measurement": "metabolite concentration in urine, creatinine-normalized", "setting": "U VIII, 24 h post (23.83 h)", "value": 0.1, "unit": "µg/mmol creatinine"},
      {"measurement": "metabolite concentration in urine", "setting": "U VIII, pre (-0.33 h)", "value": 0.5, "unit": "µg/kg"},
      {"measurement": "metabolite concentration in urine, creatinine-normalized", "setting": "U VIII, pre (-0.33 h)", "value": 0.1, "unit": "µg/mmol creatinine"},
      {"measurement": "metabolite concentration in urine", "setting": "U X, 0.5 h post (0.53 h)", "value": 0.4, "unit": "µg/kg"},
      {"measurement": "metabolite concentration in urine, creatinine-normalized", "setting": "U X, 0.5 h post (0.53 h)", "value": 0.2, "unit": "µg/mmol creatinine"},
      {"measurement": "metabolite concentration in urine", "setting": "U X, 1 h post (1.03 h)", "value": 0.4, "unit": "µg/kg"},
      {"measurement": "metabolite concentration in urine, creatinine-normalized", "setting": "U X, 1 h post (1.03 h)", "value": 0.5, "unit": "µg/mmol creatinine"},
      {"measurement": "metabolite concentration in urine", "setting": "U X, 2 h post (2.03 h)", "value": 0.3, "unit": "µg/kg"},
      {"measurement": "metabolite concentration in urine, creatinine-normalized", "setting": "U X, 2 h post (2.03 h)", "value": 0.5, "unit": "µg/mmol creatinine"},
      {"measurement": "metabolite concentration in urine", "setting": "U X, 4 h post (3.85 h)", "value": 0.4, "unit": "µg/kg"},
      {"measurement": "metabolite concentration in urine, creatinine-normalized", "setting": "U X, 4 h post (3.85 h)", "value": 0.3, "unit": "µg/mmol creatinine"},
      {"measurement": "metabolite concentration in urine", "setting": "U X, 6 h post (5.80 h)", "value": 0.5, "unit": "µg/kg"},
      {"measurement": "metabolite concentration in urine, creatinine-normalized", "setting": "U X, 6 h post (5.80 h)", "value": 0.2, "unit": "µg/mmol creatinine"},
      {"measurement": "metabolite concentration in urine", "setting": "U X, 8 h post (7.75 h)", "value": 0.3, "unit": "µg/kg"},
      {"measurement": "metabolite concentration in urine, creatinine-normalized", "setting": "U X, 8 h post (7.75 h)", "value": 0.1, "unit": "µg/mmol creatinine"},
      {"measurement": "metabolite concentration in urine", "setting": "U X, 24 h post (23.97 h)", "value": 0.2, "unit": "µg/kg"},
      {"measurement": "metabolite concentration in urine, creatinine-normalized", "setting": "U X, 24 h post (23.97 h)", "value": 0.02, "unit": "µg/mmol creatinine"},
      {"measurement": "metabolite concentration in urine", "setting": "U X, pre (-0.07 h)", "value": "< LOD^1"},
      {"measurement": "metabolite concentration in urine, creatinine-normalized", "setting": "U X, pre (-0.07 h)", "value": "< LOD^1"},
      {"measurement": "metabolite concentration in urine", "setting": "U XI, 0.5 h post (0.50 h)", "value": 0.4, "unit": "µg/kg"},
      {"measurement": "metabolite concentration in urine, creatinine-normalized", "setting": "U XI, 0.5 h post (0.50 h)", "value": 0.4, "unit": "µg/mmol creatinine"},
      {"measurement": "metabolite concentration in urine", "setting": "U XI, 1 h post (1.02 h)", "value": 0.6, "unit": "µg/kg"},
      {"measurement": "metabolite concentration in urine, creatinine-normalized", "setting": "U XI, 1 h post (1.02 h)", "value": 0.7, "unit": "µg/mmol creatinine"},
      {"measurement": "metabolite concentration in urine", "setting": "U XI, 2 h post (2.00 h)", "value": 0.5, "unit": "µg/kg"},
      {"measurement": "metabolite concentration in urine, creatinine-normalized", "setting": "U XI, 2 h post (2.00 h)", "value": 0.7, "unit": "µg/mmol creatinine"},
      {"measurement": "metabolite concentration in urine", "setting": "U XI, pre (-0.08 h)", "value": 0.8, "unit": "µg/kg"},
      {"measurement": "metabolite concentration in urine, creatinine-normalized", "setting": "U XI, pre (-0.08 h)", "value": 0.2, "unit": "µg/mmol creatinine"},
      {"measurement": "metabolite concentration in urine", "setting": "U XII, 0.5 h post (0.48 h)", "value": 0.3, "unit": "µg/kg"},
      {"measurement": "metabolite concentration in urine, creatinine-normalized", "setting": "U XII, 0.5 h post (0.48 h)", "value": 0.04, "unit": "µg/mmol creatinine"},
      {"measurement": "metabolite concentration in urine", "setting": "U XII, 1 h post (1.03 h)", "value": 0.3, "unit": "µg/kg"},
      {"measurement": "metabolite concentration in urine, creatinine-normalized", "setting": "U XII, 1 h post (1.03 h)", "value": 0.3, "unit": "µg/mmol creatinine"},
      {"measurement": "metabolite concentration in urine", "setting": "U XII, 2 h post (1.85 h)", "value": 0.9, "unit": "µg/kg"}
    ]}
  ]
}
